How the values were obtained:
Assay type in all cases: in vivo
Veronica persica (VERPE) [1] = assay: Post-emergence herbicidal efficacy at 320 g/ha, greenhouse pot test; conditions: 320 g/ha, visual rating vs untreated control after about 3 weeks
Outline: (§1)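 Applied onto green plant parts as suspension or emulsion at a 600 L/ha water rate, containing 0.5% additive. Potted weeds in sandy loam were treated at one leaf and assessed visually versus controls about three weeks later.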

Stellaria media (STEME) [2] = assay: as above; conditions: visual rating vs untreated control after about 3 weeks
Outline: as §1

[3] = test system: Alopecurus myosuroides (ALOMY); assay: as above; conditions: visual rating vs untreated control after about 3 weeks
Outline: as §1

[4] = test system: Amaranthus retroflexus (AMARE); assay: as above; conditions: visual rating vs untreated control after about 3 weeks
Outline: as §1

Viola tricolor (VIOTR) [5] = assay: Post-emergence herbicidal efficacy at 80 g/ha, greenhouse pot test; conditions: visual rating vs untreated control after about 3 weeks
Protocol: (§2) Seeds of monocotyledonous and dicotyledonous weeds and crop plants were placed in sandy loam in plastic or organic planting pots, covered with soil and cultivated in a greenhouse under controlled growth conditions. 2 to 3 weeks after sowing, the test plants were treated at the one-leaf stage. The compounds of the invention, formulated in the form of wettable powders (WP) or as emulsion concentrates (EC), were then sprayed onto the green parts of the plants as aqueous suspension or emulsion with addition of 0.5% additive at a water application rate of 600 l/ha (converted). After the test plants had been kept in the greenhouse under optimum growth conditions for about 3 weeks, the activity of the preparations was rated visually in comparison to untreated controls. For example, 100% activity=the plants have died, 0% activity=like control plants. Tables B1 to B6 below show the effects of selected compounds of the general formula (I) according to Table 1 on various harmful plants and an application rate corresponding to 80 g/ha, which were obtained by the experimental procedure mentioned above.

[6] = test system: Alopecurus myosuroides (ALOMY); assay: as above; conditions: visual rating vs untreated control after about 3 weeks
Protocol: as §2

[7] = test system: Amaranthus retroflexus (AMARE); assay: as above; conditions: visual rating vs untreated control after about 3 weeks
Protocol: as §2

Bassia scoparia (KCHSC) [8] = assay: Pre-emergence herbicide efficacy at 320 g/ha, greenhouse pot test; conditions: 320 g/ha, visual scoring vs untreated control after about 3 weeks
Outline: (§3)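 Visual percent activity versus untreated controls, rated roughly 3 weeks post-treatment in greenhouse (0% = like control, 100% = dead). Pre-emergence application to covering sandy loam soil as aqueous suspension/emulsion, 600 L/ha, plus 0.5% additive.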

[9] = test system: Echinochloa crus-galli (ECHCG); assay: as above; conditions: visual scoring vs untreated control after about 3 weeks
Outline: as §3

[10] = test system: Matricaria inodora (MATIN); assay: as above; conditions: visual scoring vs untreated control after about 3 weeks
Outline: as §3

[11] = test system: Digitaria sanguinalis (DIGSA); assay: as above; conditions: visual scoring vs untreated control after about 3 weeks
Outline: as §3

Veronica persica (VERPE) [12] = assay: as above; conditions: visual scoring vs untreated control after about 3 weeks
Outline: as §3

[13] = test system: Abutilon theophrasti (ABUTH); assay: as above; conditions: visual scoring vs untreated control after about 3 weeks
Outline: as §3

Poa annua (POAAN) [14] = assay: as above; conditions: visual scoring vs untreated control after about 3 weeks
Outline: as §3

Stellaria media (STEME) [15] = assay: as above; conditions: visual scoring vs untreated control after about 3 weeks
Outline: as §3

Lolium rigidum (LOLRI) = assay: as above; conditions: visual scoring vs untreated control after about 3 weeks
Outline: as §3

Setaria viridis (SETVI) [16] = assay: as above; conditions: visual scoring vs untreated control after about 3 weeks
Outline: as §3

[17] = test system: Alopecurus myosuroides (ALOMY); assay: as above; conditions: visual scoring vs untreated control after about 3 weeks
Outline: as §3

[18] = test system: Amaranthus retroflexus (AMARE); assay: as above; conditions: visual scoring vs untreated control after about 3 weeks
Outline: as §3

Veronica persica (VERPE) [19] = assay: Pre-emergence herbicide efficacy at 80 g/ha, greenhouse pot test; conditions: visual scoring vs untreated control after about 3 weeks
From the text: (§4) Seeds of monocotyledonous and dicotyledonous weed plants and crop plants were placed in plastic or organic planting pots and covered with soil. The compounds of the invention, formulated in the form of wettable powders (WP) or as emulsion concentrates (EC), were then applied to the surface of the covering soil as aqueous suspension or emulsion with addition of 0.5% additive at a water application rate of […] (converted). After the treatment, the pots were placed in a greenhouse and kept under good growth conditions for the test plants. After about 3 weeks, the effect of the preparations was scored visually in comparison with untreated controls as percentages. For example, 100% activity=the plants have died, 0% activity=like control plants. Tables D1 to D12 below show the effects of selected compounds of the general formula (I) according to Table 1 on various harmful plants and an application rate corresponding to 80 g/ha, which were obtained by the experimental procedure mentioned above.

[20] = test system: Polygonum convolvulus (POLCO); assay: as above; conditions: visual scoring vs untreated control after about 3 weeks
From the text: as §4

[21] = test system: Abutilon theophrasti (ABUTH); assay: as above; conditions: visual scoring vs untreated control after about 3 weeks
From the text: as §4

Viola tricolor (VIOTR) [22] = assay: as above; conditions: visual scoring vs untreated control after about 3 weeks
From the text: as §4

[23] = test system: Alopecurus myosuroides (ALOMY); assay: as above; conditions: visual scoring vs untreated control after about 3 weeks
From the text: as §4

[24] = test system: Amaranthus retroflexus (AMARE); assay: as above; conditions: visual scoring vs untreated control after about 3 weeks
From the text: as §4

Bassia scoparia (KCHSC) [25] = assay: Post-emergence herbicidal efficacy at 320 g/ha, greenhouse pot test; conditions: visual rating vs untreated control after about 3 weeks
Outline: as §1

[26] = test system: Digitaria sanguinalis (DIGSA); assay: as above; conditions: visual rating vs untreated control after about 3 weeks
Outline: as §1

[27] = test system: Abutilon theophrasti (ABUTH); assay: as above; conditions: visual rating vs untreated control after about 3 weeks
Outline: as §1

Poa annua (POAAN) [28] = assay: as above; conditions: visual rating vs untreated control after about 3 weeks
Outline: as §1

Veronica persica (VERPE) [29] = assay: Post-emergence herbicidal efficacy at 80 g/ha, greenhouse pot test; conditions: visual rating vs untreated control after about 3 weeks
Protocol: as §2

[30] = test system: Polygonum convolvulus (POLCO); assay: as above; conditions: visual rating vs untreated control after about 3 weeks
Protocol: as §2

[31] = test system: Matricaria inodora (MATIN); assay: Pre-emergence herbicide efficacy at 80 g/ha, greenhouse pot test; conditions: visual scoring vs untreated control after about 3 weeks
From the text: as §4

[32] = test system: Digitaria sanguinalis (DIGSA); assay: as above; conditions: visual scoring vs untreated control after about 3 weeks
From the text: as §4

Setaria viridis (SETVI) [33] = assay: as above; conditions: visual scoring vs untreated control after about 3 weeks
From the text: as §4

Row | Compound | Post-emergence efficacy against Veronica persica (VERPE) (Veronica persica (VERPE) [1]) [%] | Post-emergence action against Stellaria media (STEME) (Stellaria media (STEME) [2]) [%] | Post-emergence efficacy against Amaranthus retroflexus (AMARE) [4] [%] | Post-emergence efficacy against Viola tricolor (VIOTR) (Viola tricolor (VIOTR) [5]) [%] | Post-emergence efficacy against Alopecurus myosuroides (ALOMY) [6] [%] | Post-emergence efficacy against Amaranthus retroflexus (AMARE) [7] [%] | Pre-emergence efficacy against Bassia scoparia (KCHSC) (Bassia scoparia (KCHSC) [8]) [%] | Pre-emergence efficacy against Echinochloa crus-galli (ECHCG) [9] [%] | Pre-emergence efficacy against Matricaria inodora (MATIN) [10] [%] | Pre-emergence efficacy against Digitaria sanguinalis (DIGSA) [11] [%] | Pre-emergence efficacy against Veronica persica (VERPE) (Veronica persica (VERPE) [12]) [%] | Pre-emergence efficacy against Abutilon theophrasti (ABUTH) [13] [%] | Pre-emergence efficacy against Poa annua (POAAN) (Poa annua (POAAN) [14]) [%] | Pre-emergence efficacy against Stellaria media (STEME) (Stellaria media (STEME) [15]) [%] | Pre-emergence efficacy against Setaria viridis (SETVI) (Setaria viridis (SETVI) [16]) [%] | Pre-emergence efficacy against Alopecurus myosuroides (ALOMY) [17] [%] | Pre-emergence efficacy against Amaranthus retroflexus (AMARE) [18] [%] | Pre-emergence efficacy against Polygonum convolvulus (POLCO) [20] [%] | Pre-emergence efficacy against Viola tricolor (VIOTR) (Viola tricolor (VIOTR) [22]) [%] | Pre-emergence efficacy against Amaranthus retroflexus (AMARE) [24] [%] | other results
1 | Cc1cc(C)c(-c2cc(C(F)(F)F)no2)c(Oc2ncc(Cl)cn2)n1 [Example I-2] | 100 | 100 | 100 | 90 | 90 | 100 | 90 | 100 | 100 | 100 | 100 | 100 | 100 | 100 | 100 | 100 | 100 | 80 | 90 | 100 | Post-emergence efficacy against Alopecurus myosuroides (ALOMY) [3]: 90%; Pre-emergence efficacy against Lolium rigidum (LOLRI) (Lolium rigidum (LOLRI)): 90%; Pre-emergence efficacy against Veronica persica (VERPE) (Veronica persica (VERPE) [19]): 90%; Pre-emergence efficacy against Abutilon theophrasti (ABUTH) [21]: 90%; Pre-emergence efficacy against Alopecurus myosuroides (ALOMY) [23]: 80%
2 | Cc1cc(C)c(-c2cc(C(F)F)on2)c(Oc2ncc(F)cn2)n1 [Example I-3] | 100 | 90 | 90 | 100 | 90 | 90 | 100 | 100 | 100 | 100 | 100 | 100 | 100 | 100 | 100 | 100 | 100 | 90 | 100 | 100 | Post-emergence efficacy against Bassia scoparia (KCHSC) (Bassia scoparia (KCHSC) [25]): 100%; Post-emergence efficacy against Digitaria sanguinalis (DIGSA) [26]: 90%; Post-emergence efficacy against Abutilon theophrasti (ABUTH) [27]: 90%; Post-emergence efficacy against Poa annua (POAAN) (Poa annua (POAAN) [28]): 100%; Post-emergence efficacy against Veronica persica (VERPE) (Veronica persica (VERPE) [29]): 80%; Post-emergence efficacy against Polygonum convolvulus (POLCO) [30]: 100%; Pre-emergence efficacy against Matricaria inodora (MATIN) [31]: 100%; Pre-emergence efficacy against Digitaria sanguinalis (DIGSA) [32]: 100%; Pre-emergence efficacy against Veronica persica (VERPE) (Veronica persica (VERPE) [19]): 80%
3 | Cc1cc(C)c(-c2cc(C(F)Cl)no2)c(Oc2ncc(Cl)cn2)n1 (centres unmarked) [Example I-5] | 100 | 90 | 100 | 80 | 80 | 100 | 100 | 90 | 100 | 100 | 90 | 100 | 100 | 100 | 100 | 100 | 100 | 90 | 90 | 100 | Post-emergence efficacy against Bassia scoparia (KCHSC) (Bassia scoparia (KCHSC) [25]): 90%; Post-emergence efficacy against Digitaria sanguinalis (DIGSA) [26]: 90%; Post-emergence efficacy against Alopecurus myosuroides (ALOMY) [3]: 100%; Pre-emergence efficacy against Matricaria inodora (MATIN) [31]: 90%; Pre-emergence efficacy against Veronica persica (VERPE) (Veronica persica (VERPE) [19]): 90%; Pre-emergence efficacy against Abutilon theophrasti (ABUTH) [21]: 90%; Pre-emergence efficacy against Setaria viridis (SETVI) (Setaria viridis (SETVI) [33]): 90%; Pre-emergence efficacy against Alopecurus myosuroides (ALOMY) [23]: 90%
4 | Cc1cc(C)c(-c2cc(C(F)F)on2)c(Oc2ncc(Cl)cn2)n1 [Example I-10] | 90 |  |  | 100 | 80 |  | 90 | 100 | 100 | 90 | 100 | 100 | 90 | 100 | 90 |  | 100 | 90 | 100 | 90 | Post-emergence efficacy against Digitaria sanguinalis (DIGSA) [26]: 100%; Post-emergence efficacy against Poa annua (POAAN) (Poa annua (POAAN) [28]): 100%; Pre-emergence efficacy against Lolium rigidum (LOLRI) (Lolium rigidum (LOLRI)): 90%; Pre-emergence efficacy against Matricaria inodora (MATIN) [31]: 90%; Pre-emergence efficacy against Digitaria sanguinalis (DIGSA) [32]: 90%; Pre-emergence efficacy against Abutilon theophrasti (ABUTH) [21]: 90%

Reference: patent publication US20230303549A1, “SUBSTITUTED HETEROARYLOXYPYRIDINES, THE SALTS THEREOF AND THEIR USE AS HERBICIDAL AGENTS” (Bayer Aktiengesellschaft, priority 2020, published 2023)
